Experimental data reported in article PMC8126888 (RSC Medicinal Chemistry, 2020).
Read-outs that look alike come from different tables or passages of the source.

Experiments:
in vitro [1] = conditions: human, HepG2 cells
in vitro [2] = conditions: human, HFF-1 cells
in vitro [3] = conditions: human, microsomes; for microsomal CLint at 0.5 μM: pH 7.4, HLM CLint (uL/min/mg), human liver microsomes
[4] = tested on: Trypanosoma cruzi, Tulahuen CL2, beta-galactosidase strain; assay: microbe, parasite or virus in culture; conditions: MRC5, read-out: T. cruzi Tulahuen C4 (LacZ) IC50 (uM)
in vitro [5] = conditions: PAMPA
in vitro [6] = conditions: human
in vitro [7] = conditions: human; for CC50 at 120 h: THP-1 cells differentiated with PMA
[8] = tested on: primary peritoneal mouse macrophages (PMM); assay: cells; conditions: Macrophage
in vitro [9] = conditions: mouse, microsomes; for microsomal CLint at 0.5 μM: pH 7.4, MLM CLint (uL/min/mg), mouse liver microsomes
physchem = conditions: HPLC, Ascentis Express RP Amide column, pH 7.4, eLogD, experimental
[10] = tested on: Leishmania infantum (MHOM/MA/67/ITMAP-263) intracellular amastigotes in THP-1; assay: microbe, parasite or virus in culture
[11] = tested on: Leishmania infantum MHOM/MA(BE)/67/ITMAP263 intracellular amastigotes; assay: microbe, parasite or virus in culture; conditions: Macrophage, in Mus musculus
[12] = tested on: Leishmania infantum MHOM/MA(BE)/67/ITMAP263 intracellular amastigotes; conditions: intracellular amastigotes in PMM
[13] = THP-1, read-out: L. infantum MHOM/MA/67/ITMAP263 intracellular amastigotes THP-1 cells IC50 (uM)
[14] = read-out: L. Inf. pIC50, from L. infantum intracellular amastigote IC50 (converted)
[15] = read-out: L. infantum MHOM/MA(BE)/67/ITMAP263 intracellular amastigotes IC50 (uM), intracellular amastigotes

## CCN(Cc1ccc(F)cc1)S(=O)(=O)c1cc(C(=O)N2CCOCC2)ccc1OC [DNDI0003392124]
In vitro [1]
  CC50: > 64 µM
In vitro [2]
  CC50: > 64 µM
In vitro [3]
  microsomal CLint at 0.5 μM: 142 µL/min/mg
[4]
  IC50: 36 µM
In vitro [5]
  Papp: 15.5 ×10⁻⁶ cm/s
In vitro [6]
  CC50 at 3 days: > 64 µM
In vitro [7]
  CC50 at 120 h: > 64 µM
[8]; read-out: PMM IC50 (uM)
  IC50: > 64 µM
In vitro [9]
  microsomal CLint at 0.5 μM: 116 µL/min/mg
physchem
  chromatographic logD: 2.7
[10]; [13]
  IC50: > 64 µM
[11]; [14]
  IC50: 20.9 µM
[11]; [15]
  IC50: 20.7 µM

## COCCOCN1CNc2cc(OC)c(S(=O)(=O)N(Cc3ccccc3)Cc3ccccc3)cc2S1(=O)=O [DNDI0003425511]
In vitro [1]
  CC50: 52 µM
In vitro [2]
  CC50: > 64 µM
In vitro [3]
  microsomal CLint at 0.5 μM: 460 µL/min/mg
[4]
  IC50: 61.7 µM
In vitro [5]
  Papp: 0.92 ×10⁻⁶ cm/s
In vitro [6]
  CC50 at 3 days: > 64 µM
In vitro [7]
  CC50 at 120 h: 40.2 µM
[8]; read-out: PMM IC50 (uM)
  IC50: > 64 µM
In vitro [9]
  microsomal CLint at 0.5 μM: 976 µL/min/mg
[10]; [13]
  IC50: 14.8 µM
[11]; [14]
  IC50: 0.661 µM
[11]; [15]
  IC50: 0.65 µM

## COc1ccc(S(C)(=O)=O)cc1S(=O)(=O)N(Cc1ccccc1)CC(C)(C)C [DNDI0003425524]
In vitro [1]
  CC50: > 64 µM
In vitro [2]
  CC50: 57.2 µM
In vitro [3]
  microsomal CLint at 0.5 μM: 1050 µL/min/mg
[4]
  IC50: 28.7 µM
In vitro [5]
  Papp: 14.1 ×10⁻⁶ cm/s
In vitro [6]
  CC50 at 3 days: > 64 µM
In vitro [7]
  CC50 at 120 h: > 64 µM
[8]; read-out: PMM IC50 (uM)
  IC50: > 64 µM
In vitro [9]
  microsomal CLint at 0.5 μM: 1100 µL/min/mg
physchem
  chromatographic logD: 3.6
[10]; [13]
  IC50: 47.7 µM
[11]; [14]
  IC50: 2.69 µM
[11]; [15]
  IC50: 2.69 µM

## CCCCC1Nc2cc(Cl)c(S(N)(=O)=O)cc2S(=O)(=O)N1Cc1ccccc1 (centres unmarked) [DNDI0003392147]
In vitro [1]
  CC50: > 64 µM
In vitro [2]
  CC50: > 64 µM
In vitro [3]
  microsomal CLint at 0.5 μM: 22 µL/min/mg
[4]
  IC50: > 64 µM
In vitro [5]
  Papp: 1.39 ×10⁻⁶ cm/s
In vitro [6]
  CC50 at 3 days: > 64 µM
In vitro [7]
  CC50 at 120 h: 12 µM
[8]; read-out: PMM IC50 (uM)
  IC50: > 64 µM
In vitro [9]
  microsomal CLint at 0.5 μM: 147 µL/min/mg
physchem
  chromatographic logD: 4
[10]; [13]
  IC50: 23.4 µM
[11]; [14]
  IC50: 7.24 µM
[11]; [15]
  IC50: 7.3 µM

## CCCCOc1ccc(C(=O)N2CCOCC2)cc1S(=O)(=O)NCc1ccccc1 [DNDI0003407874]
In vitro [1]
  CC50: > 64 µM
In vitro [2]
  CC50: > 64 µM
In vitro [3]
  microsomal CLint at 0.5 μM: 160 µL/min/mg
[4]
  IC50: 45.9 µM
In vitro [5]
  Papp: 27.4 ×10⁻⁶ cm/s
In vitro [6]
  CC50 at 3 days: > 64 µM
In vitro [7]
  CC50 at 120 h: > 64 µM
[8]; read-out: PMM IC50 (uM)
  IC50: > 64 µM
In vitro [9]
  microsomal CLint at 0.5 μM: 274 µL/min/mg
physchem
  chromatographic logD: 3.1
[10]; [13]
  IC50: > 64 µM
[11]; [14]
  IC50: > 64 µM
[11]; [15]
  IC50: > 64 µM

## O=S(=O)(NCc1ccccc1)c1cc2c(cc1Cl)NCN(Cc1ccccc1)S2(=O)=O [DNDI0003392144]
In vitro [1]
  CC50: > 64 µM
In vitro [2]
  CC50: 60.2 µM
In vitro [3]
  microsomal CLint at 0.5 μM: 82 µL/min/mg
[4]
  IC50: 35.7 µM
In vitro [5]
  Papp: 1.61 ×10⁻⁶ cm/s
In vitro [6]
  CC50 at 3 days: > 64 µM
In vitro [7]
  CC50 at 120 h: 53.2 µM
[8]; read-out: PMM IC50 (uM)
  IC50: > 64 µM
In vitro [9]
  microsomal CLint at 0.5 μM: 261 µL/min/mg
physchem
  chromatographic logD: 3.7
[10]; [13]
  IC50: > 64 µM
[11]; [14]
  IC50: > 64 µM
[11]; [15]
  IC50: > 64 µM

## COc1ccc(C(=O)N2CCOCC2)cc1S(=O)(=O)N(Cc1ccc(C(F)(F)F)nc1)CC(C)(C)C [Compound 48]
In vitro [3]; pH 7.4, Microsome Clint,u Human, Table 2, intrinsic in vitro clearance, liver microsomes
  microsomal CLint at 0.5 h, 0.5 µM: 143 µL/min/mg
[12]
  potency against L. inf. in words: inactive
In vitro [7]; PMA-differentiated THP-1 cells
  IC50 at 120 h: > 64.6 µM
[8]; read-out: PMM pIC50 (converted)
  IC50: > 64.6 µM
In vitro [9]; pH 7.4, Microsome Clint,u Mouse, Table 2, intrinsic in vitro clearance, liver microsomes
  microsomal CLint at 0.5 h, 0.5 µM: 379 µL/min/mg
[10]; THP-1, 120 h, read-out: Intracellular activity pIC50 L. inf. in THP-1 (converted)
  IC50: > 64.6 µM
[11]; read-out: L. inf. pIC50, intracellular amastigotes in PMM (converted), geometric mean of a minimum of two experiments ± standard error
  IC50: 45.7 µM

## Nc1cc(Cl)c(S(N)(=O)=O)cc1S(=O)(=O)N(Cc1ccccc1)Cc1ccccc1 [DNDI0003392145]
In vitro [1]
  CC50: > 64 µM
In vitro [2]
  CC50: > 64 µM
In vitro [3]
  microsomal CLint at 0.5 μM: 253 µL/min/mg
[4]
  IC50: 17.7 µM
In vitro [5]
  Papp: 3.37 ×10⁻⁶ cm/s
In vitro [6]
  CC50 at 3 days: 43.4 µM
In vitro [7]
  CC50 at 120 h: 60.6 µM
[8]; read-out: PMM IC50 (uM)
  IC50: 50.8 µM
physchem
  chromatographic logD: 3.4
[10]; [13]
  IC50: 31.2 µM
[11]; [14]
  IC50: 35.5 µM
[11]; [15]
  IC50: 35.3 µM

## COCCOCN(Cc1ccccc1)S(=O)(=O)c1cc(OC)ccc1OC [DNDI0003425514]
In vitro [1]
  CC50: > 64 µM
In vitro [2]
  CC50: > 64 µM
[4]
  IC50: > 64 µM
In vitro [5]
  Papp: 12.8 ×10⁻⁶ cm/s
In vitro [6]
  CC50 at 3 days: > 64 µM
In vitro [7]
  CC50 at 120 h: > 64 µM
[8]; read-out: PMM IC50 (uM)
  IC50: > 64 µM
physchem
  chromatographic logD: 3.4
[10]; [13]
  IC50: > 64 µM
[11]; [14]
  IC50: 6.17 µM
[11]; [15]
  IC50: 6.11 µM
